Test results taken from patent US20250236617A1, “BICYCLIC TETRAHYDROTHIAZEPINE DERIVATIVES” (Hoffmann-La Roche Inc., priority 2022, published 2025).

Assays:
primary human T-cells [1] = experiment: T-cell proliferation assay (CellTiter-Glo); assay type: cell-based; details: CD3 condition; for EC50: proliferation after 5 days, CellTiter-Glo, read-out: Tcell Proliferation CD3 EC50; for Emax proliferation (% activation): 5 days, 20 μM reference compound A1 = 100%
Procedure: For coating of plates, PBS++ only or PBS++ with CD3 antibody (concentration depending on donor and determined by CD3 titrations) is added 100 μl/well to Poly-D Lysine coated 96-well plates. Plates are sealed and incubated at room temperature for 3 hours on a table-top rocking platform. After incubation, plates are washed once with PBS−− and filled with 40 μl/well culture medium only. Compounds are then added (see next section) to medium only plates. After 3 hours of culturing the T-cells, cells are filtered through a cell strainer (Miltenyi Biotech, #130-041-407), counted again and concentration is adjusted to 1.25 Mio/ml.
Cells are then seeded 80 μl/well to the 40 μl/well including dispensed compounds according to plate layout. By adding cells, compounds are further diluted 1:3, and resulting in 100 k cells/120 μl/well. After 48 hours 40 μl of supernatant is collected carefully from the top while not disturbing the cells. Cells are assessed for proliferation 5 days later by measuring […] using CellTiterGlo (Promega).
Compounds were added in a 5 or 6 pt dose response with the Tecan D300e Digital Dispenser, all conditions 3 times more concentrated than the end-concentration, since cells are added afterwards (80 μl cells to 40 μl prepared medium with treatment). […] The positive control was the reference compound A1 that was added in a dose response as well, additionally to 3 wells of only 20 μM representing the positive stimulator control. All wells were normalized with DMSO to a final concentration of 0.6% (0.2% end-concentration).
After 5 days, for detection of ATP which is directly proportional to the number of cells present per well, the CellTiter-Glo® 2.0 Reagent is used. After visual control for toxicity or precipitations of the tested compounds, the plates are equilibrated to room temperature for 45 minutes. CellTiter-Glo® 2.0 Reagent is equilibrated to room temperature as well. After equilibration, an equal amount of CellTiter-Glo reagent is added to the cells (80 μl/well) with an electronic multichannel pipette. Plates are placed on a rocking platform for 15 minutes at room temperature. After incubation, the bottom of the plates is sealed with backing tape. Luminescence is measured with PHERAstar FSX (interval time 0.5 sec, gain 3000, focal height 15 mm) and exported as CSV file for analysis in Genedata screener.
Calculations and Data Reporting CD3 and PBS plates were analysed separately in Genedata Screener using Roche Normalization PCT_POS_CTRL with DMSO set as Neutral Control and 20 μM of the reference compound A1 set as Stimulator Control/100%.
For CD3 conditions EC50 and Emax of the fitted sigmoidal curve were reported. If no curve could be fitted, the EC50 was reported as blank field and the Emax was based on individual data points. […] Compounds which activate unstimulated cells (see IL2 measurements) or compounds which negatively affected viability were flagged.

primary human T-cells [2] = experiment: IL2 secretion measurements in CD3-stimulated T-cells; assay type: cell-based; details: CD3 condition; for Emax IL2 (% activation): 24 hours, 20 μM reference compound A1 = 100%; for EC50: IL2 secretion after 24 hours, read-out: Tcell IL2 CD3 EC50
Procedure: As readouts for T-cell activation, 1L2 secretion after 24 hours and proliferation after 5 days was measured. Increases in 1L2 secretion and proliferation upon compound treatment were assessed as the % of the maximum of reference compound A1. WO 2016/139181 discloses reference compound A1 as example 70. As a counter screen and to make sure that no unwanted TCR-independent activation was triggered, PBS conditions were run for all compounds.
Expanded primary human T-cells were thawed and cultured in RPMI 1640 (Gibco, #61870-010)+5% human serum (HS, Sigma, #H3667)+1 mM Sodium Pyruvate (Gibco, #11360-039)+50 μM 2-mercaptoethanol (Gibco, #31350-010) and 1× Pen-Strep (Life Technologies, #15140122) medium at density of 2 Mio/ml for 3 hours in 5% CO2, 37° C. and 95% humidity. For coating of plates, […] or PBS++ with CD3 antibody (concentration depending on donor and determined by CD3 titrations) was added 100 μl/well to Poly-D Lysine coated 96-well plates. Plates were sealed and incubated at room temperature for 3 hours on a table-top rocking platform. After incubation, plates were washed once with PBS−− and filled with 40 μl/well culture medium only. Compounds were then added (see next section) to medium only plates. After 3 hours of culturing the T-cells, cells were filtered through a cell strainer (Miltenyi Biotech, #130-041-407), counted again and concentration was adjusted to 1.25 Mio/ml.
Cells were then seeded 80 μl/well to the 40 μl/well including dispensed compounds according to plate layout. By adding cells, compounds were further diluted 1:3, and resulting in 100 k cells/120 μl/well. After 24 hours 40 μl of supernatant was collected carefully from the top while not disturbing the cells and transferred into a round bottom 96 well plate. Collected and frozen supernatant was used for detection of IL2 using the IL-2 Human ProQuantum Immunoassay Kit (Invitrogen) or using the Human IL-2 ELISA Kit (Thermo Fisher).
Compounds were added in a 5 or 6 pt dose response with the Tecan D300e Digital Dispenser, all conditions 3 times more concentrated than the end-concentration, since cells are added afterwards (80 μl cells to 40 μl prepared medium with treatment). The DR was starting at 20 μM or 10 μM final top concentration and a dilution factor of 3.333. The positive control was the reference compound A1 that was added in a dose response as well, additionally to 3 wells of only 20 μM representing the positive stimulator control. All wells were normalized with DMSO to a final concentration of 0.6% (0.2% end-concentration).
The immunoassay is done following the manufacturer's manual (Invitrogen, #A35603). Additional information: For the immunoassay, MicroAmp™ EnduraPlate™ Optical 384-Well plates are used. Frozen supernatant is thawed and centrifuged for 5 minutes at 1000×g, both steps at 4° C. After centrifugation, required sample amount is taken from the top, and in a separate LightCycler V-bottom plate (working plate) diluted with assay dilution buffer, dilution factor depending on the PBS or CD3 condition but at least 1:3. IL-2 standard and blanks are prepared in the same V-bottom plate, standard with a range of […] (extended version). After preparation, 5 μl of sample dilutions or standard/blanks are transferred to the optical 384-well plate (assay plate) and the 10 μl reaction protocol is being followed. For measurement, the QuantStudio 12K Flex system is used. Raw data is extracted and IL-2 concentrations are calculated with the Thermo Fisher online app (apps.thermofisher.com/apps/proquantum).
ELISA is done following the manufacturer's manual (Thermo Fisher Scientific, #88-7025-88). Additional information: For the ELISA Nunc MaxiSorp 96 well plates are used. Frozen supernatant is thawed and centrifuged for 5 minutes at 1000×g, both steps at 4° C. […]

[3] = target: DGKzeta (hDGKzeta(1-928)-N-His) (Homo sapiens (Human), UniProt Q13574); experiment: In vitro DGK inhibition assay, ADP-Glo (in house), DGKzeta; assay type: biochemical; details: DLG liposomes, 50 μM ATP, 2 nM enzyme, 1 hour reaction
Chain of DGKzeta (hDGKzeta(1-928)-N-His) (Q13574 whole entry): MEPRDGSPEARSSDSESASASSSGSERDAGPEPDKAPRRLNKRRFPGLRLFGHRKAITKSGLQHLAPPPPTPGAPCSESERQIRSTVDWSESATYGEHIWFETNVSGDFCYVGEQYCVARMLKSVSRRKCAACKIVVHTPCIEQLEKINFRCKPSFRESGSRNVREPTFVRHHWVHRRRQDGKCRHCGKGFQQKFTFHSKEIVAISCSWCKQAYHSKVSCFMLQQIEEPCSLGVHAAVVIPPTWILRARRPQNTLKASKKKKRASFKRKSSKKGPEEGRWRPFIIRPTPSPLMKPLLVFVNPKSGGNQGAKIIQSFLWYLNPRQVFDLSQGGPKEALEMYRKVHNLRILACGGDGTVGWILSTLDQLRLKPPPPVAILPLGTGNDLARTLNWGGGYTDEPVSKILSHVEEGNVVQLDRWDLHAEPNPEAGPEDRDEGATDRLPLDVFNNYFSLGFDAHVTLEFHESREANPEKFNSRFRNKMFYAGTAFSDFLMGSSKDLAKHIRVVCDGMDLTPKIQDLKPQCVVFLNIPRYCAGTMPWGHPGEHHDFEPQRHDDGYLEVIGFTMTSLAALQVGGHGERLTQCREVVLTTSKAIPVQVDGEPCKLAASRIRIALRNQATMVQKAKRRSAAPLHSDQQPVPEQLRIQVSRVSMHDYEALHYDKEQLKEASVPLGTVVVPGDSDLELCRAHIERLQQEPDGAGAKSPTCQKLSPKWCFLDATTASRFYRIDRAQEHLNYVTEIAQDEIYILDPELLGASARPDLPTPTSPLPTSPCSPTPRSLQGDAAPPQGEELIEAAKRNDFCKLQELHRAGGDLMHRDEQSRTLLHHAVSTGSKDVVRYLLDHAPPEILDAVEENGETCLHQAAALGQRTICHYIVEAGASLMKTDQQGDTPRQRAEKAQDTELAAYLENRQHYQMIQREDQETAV
Procedure: (§1) DGK α and ζ kinases use ATP to phosphorylate the substrate 1,2-dilauroyl-sn-glycerol (DLG, incorporated in the liposomes). ATP is converted to ADP as a result of this enzymatic reaction.
(§2) After the kinase reaction, an ATP-depletion reagent is added to terminate the kinase reaction and deplete any remaining ATP, leaving only ADP. Second, a detection reagent is added to simultaneously convert ADP to ATP and allow the newly synthesized ATP to be converted to light using a coupled luciferase/luciferin reaction.
(§3) Purification of both enzymes was performed as previously described by Takahashi et al., PeerJ, 2018 (Takahashi, D.; Sakane, F. Expression and purification of human diacylglycerol kinase alpha from baculovirus-infected insect cells for structural studies. PeerJ 2018, 6, No. e5449).
(§4) A concentrated liposome solution was prepared in assay buffer without DTT and BSA: 2 mM of DLG in 21 mM of total liposome (2 mM DLG/8 mM PS/11 mM PC). The reaction mixtures contain the assay buffer with a final DLG concentration of 125 uM ATP concentrations of 25 μM (for DGKA assay) or 50 μM (for DGKZ assay). The reactions were started by addition of DGK α and ζ kinases at 4 nM and 2 nM final concentrations, respectively. After 1 hour reaction, the amount of ADP formed was detected with the ADP-Glo kinase assay (Promega) according to the manufacturer instructions. Compounds were added in 11-points dose response, starting at […], 1:3 dilutions, with a final DMSO concentration of 2%. The multidrop combi was used as a liquid handler and luminescence was read with 0.5 s by the envision reader (PE).

[4] = target: DGKalpha (hDGKalpha(1-735)-N-His) (Homo sapiens (Human), UniProt P23743); experiment: In vitro DGK inhibition assay, ADP-Glo (in house), DGKalpha; assay type: biochemical; details: DLG liposomes, 25 μM ATP, 4 nM enzyme, 1 hour reaction
Chain of DGKalpha (hDGKalpha(1-735)-N-His) (P23743 whole entry): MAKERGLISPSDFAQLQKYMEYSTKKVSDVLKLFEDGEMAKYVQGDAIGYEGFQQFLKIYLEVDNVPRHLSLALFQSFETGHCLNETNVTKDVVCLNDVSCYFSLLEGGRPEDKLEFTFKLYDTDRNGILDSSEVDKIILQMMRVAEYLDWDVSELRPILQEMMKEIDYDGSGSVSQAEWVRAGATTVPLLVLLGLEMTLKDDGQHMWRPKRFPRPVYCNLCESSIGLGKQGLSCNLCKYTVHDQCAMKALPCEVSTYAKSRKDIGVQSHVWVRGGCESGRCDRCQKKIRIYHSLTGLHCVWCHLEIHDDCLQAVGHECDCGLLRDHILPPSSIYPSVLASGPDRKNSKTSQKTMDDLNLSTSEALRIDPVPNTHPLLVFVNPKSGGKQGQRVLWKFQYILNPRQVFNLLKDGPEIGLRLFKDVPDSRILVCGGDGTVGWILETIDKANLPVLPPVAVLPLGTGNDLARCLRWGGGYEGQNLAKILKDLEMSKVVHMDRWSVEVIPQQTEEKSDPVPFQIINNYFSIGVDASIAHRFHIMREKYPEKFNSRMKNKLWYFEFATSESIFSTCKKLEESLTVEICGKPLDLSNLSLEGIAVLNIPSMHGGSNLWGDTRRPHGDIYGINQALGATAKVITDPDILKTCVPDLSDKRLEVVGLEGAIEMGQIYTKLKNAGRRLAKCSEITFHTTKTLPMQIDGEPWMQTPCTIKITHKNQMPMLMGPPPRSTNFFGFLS
Procedure: as §1, §2, §3, §4

| Compound | EC50 (primary human T-cells [2]; Homo sapiens, T-cell) [nM] | IC50 [3] [nM] | EC50 (primary human T-cells [1]; Homo sapiens, T-cell, 120 h) [nM] | Emax IL2 (% activation) (primary human T-cells [2]) | Emax proliferation (% activation) (primary human T-cells [1]) | IC50 [4] [nM] | EC50 (primary human T-cells [1]) [nM] | EC50 (primary human T-cells [2]) [nM] |
| --- | --- | --- | --- | --- | --- | --- | --- | --- |
| Cc1ncc(-c2cc3c(cc2F)S(=O)(=O)C[C@H](N)C(=O)N3Cc2ccc(Cl)cc2)cc1C(C)(C)C [Example 16, (3R)-3-amino-7-(5-tert-butyl-6-methyl-3-pyridyl)-5-[(4-chlorophenyl)methyl]-8-fluoro-1,1-dioxo-2,3-dihydro-1λ6,5-benzothiazepin-4-one] | 1110 | – | 36 | 87 | – | – | – | – |
| N[C@H]1CS(=O)(=O)c2cc(F)c(-c3nncc(N4CCC(F)(F)CC4)n3)cc2N(Cc2ccc(Cl)cc2)C1=O [Example 17, (3R)-3-amino-5-[(4-chlorophenyl)methyl]-7-[5-(4,4-difluoro-1-piperidyl)-1,2,4-triazin-3-yl]-8-fluoro-1,1-dioxo-2,3-dihydro-1λ6,5-benzothiazepin-4-one] | 449 | 650 | 342 | 62 | 104 | 7880 | – | – |
| COC(=O)N1CC2CC(c3cnnc(-c4cc5c(cc4F)S(=O)(=O)C[C@H](N)C(=O)N5Cc4ccc(Cl)cc4)n3)(C2)C1 [Example 18, methyl 1-[3-[(3R)-3-amino-5-[(4-chlorophenyl)methyl]-8-fluoro-1,1,4-trioxo-2,3-dihydro-1λ6,5-benzothiazepin-7-yl]-1,2,4-triazin-5-yl]-3-azabicyclo[3.1.1]heptane-3-carboxylate] | 1830 | 1130 | 2720 | 61 | 79 | 4590 | – | – |
| CS(=O)(=O)C1(c2cnnc(-c3cc4c(cc3F)S(=O)(=O)C[C@H](N)C(=O)N4Cc3ccc(Cl)cc3)n2)CC1 [Example 19, (3R)-3-amino-5-[(4-chlorophenyl)methyl]-8-fluoro-7-[5-(1-methylsulfonylcyclopropyl)-1,2,4-triazin-3-yl]-1,1-dioxo-2,3-dihydro-1λ6,5-benzothiazepin-4-one] | 5710 | – | 2090 | 45 | – | – | – | – |
| CS(=O)(=O)C(CCCl)c1cnnc(-c2cc3c(cc2F)S(=O)(=O)C[C@H](N)C(=O)N3Cc2ccc(Cl)cc2)n1 (stereo partly drawn) [Example 20, (3R)-3-amino-7-[5-(3-chloro-1-methylsulfonyl-propyl)-1,2,4-triazin-3-yl]-5-[(4-chlorophenyl)methyl]-8-fluoro-1,1-dioxo-2,3-dihydro-1λ6,5-benzothiazepin-4-one] | > 10000 | 1730 | 9110 | 39 | 87 | 1660 | – | – |
| (3R)-3-amino-5-(4-chlorobenzyl)-8-fluoro-1,1-diketo-7-[5-(trifluoromethoxy)-3-pyridyl]-2,3-dihydro-1λ6,5-benzothiazepin-4-one [Example 5] | – | – | – | 100 | – | > 62500 | 319 | 604 |

Now from value to compound, other results behind:

| EC50 (primary human T-cells [2]; Homo sapiens, T-cell) [nM] | IC50 [3] [nM] | Compound | EC50 (primary human T-cells [1]; Homo sapiens, T-cell, 120 h) [nM] | Emax IL2 (% activation) (primary human T-cells [2]) | Emax proliferation (% activation) (primary human T-cells [1]) | IC50 [4] [nM] | EC50 (primary human T-cells [1]) [nM] | EC50 (primary human T-cells [2]) [nM] |
| --- | --- | --- | --- | --- | --- | --- | --- | --- |
| 811 | – | CC(C)(C)c1cncc(-c2cc3c(cc2F)S(=O)(=O)C[C@H](N)C(=O)N3Cc2ccc(-c3noc(C(F)(F)F)n3)cc2)c1 [Example 22, (3R)-3-amino-7-(5-tert-butyl-3-pyridyl)-8-fluoro-1,1-diketo-5-[4-[5-(trifluoromethyl)-1,2,4-oxadiazol-3-yl]benzyl]-2,3-dihydro-1λ6,5-benzothiazepin-4-one] | 92 | 458 | 228 | – | – | – |
| > 10000 | – | COc1cncc(-c2cc3c(cc2F)S(=O)(=O)C[C@H](N)C(=O)N3Cc2ccc(Cl)cc2)c1 [Example 26, (3R)-3-amino-5-[(4-chlorophenyl)methyl]-8-fluoro-7-(5-methoxy-3-pyridyl)-1,1-dioxo-2,3-dihydro-1λ6,5-benzothiazepin-4-one] | 416 | 29 | – | – | – | – |
